Measurements taken from US9718790B2, “Triazine derivative and pharmaceutical composition having an analgesic activity comprising the same” (SHIONOGI & CO., LTD., priority 2010, dated 2017).

Target: human P2X3 receptor (Homo sapiens (Human), UniProt P56373)
Assay: Evaluation of human P2X3 receptor inhibitory activity (Fluo-3 calcium fluorescence, FDSS 3000, ATP stimulation);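 note: stimulus was 50 nM ATP with fluorescence followed for 3 min, and the response per well was peak post-ATP fluorescence divided by the reading at measurement start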
Type: cell-based
[1] = human P2X3 receptor, Test Example 1
[2] = C6BU-1 cells stably expressing human P2X3 receptor, Fluo-3 fluorescence, FDSS 3000
[3] = C6BU-1 cells stably expressing human P2X3 receptor

Chain of human P2X3 receptor (P56373 whole entry): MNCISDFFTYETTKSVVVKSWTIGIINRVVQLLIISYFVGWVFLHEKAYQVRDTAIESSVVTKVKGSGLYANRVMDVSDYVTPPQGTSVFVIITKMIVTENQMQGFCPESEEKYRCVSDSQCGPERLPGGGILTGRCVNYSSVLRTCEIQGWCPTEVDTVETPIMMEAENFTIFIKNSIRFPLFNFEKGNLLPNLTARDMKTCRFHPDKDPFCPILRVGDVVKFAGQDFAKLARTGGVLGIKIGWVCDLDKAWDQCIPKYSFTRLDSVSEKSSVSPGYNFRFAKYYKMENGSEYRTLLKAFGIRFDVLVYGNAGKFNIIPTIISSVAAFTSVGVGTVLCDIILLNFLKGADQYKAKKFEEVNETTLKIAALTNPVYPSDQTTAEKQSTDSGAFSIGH

CC[C@@H](Cn1c(=O)[nH]/c(=N\c2ccc(OC(C)C)c(C)c2)n(Cc2ccc(C)cc2)c1=O)C(=O)OC [Compound I-0884]
IC50 [1]: 16 nM

CCc1oc2ccc(/N=c3\[nH]c(=O)n(CCNC(=O)C(F)(F)F)c(=O)n3Cc3ccc(Cl)cc3)cc2c1C [Compound I-1565]
IC50 [2]: 8 nM

CC(C)n1c(=O)n(Cc2ccc(Cl)cc2)c(=O)n(Cc2ccc(C(F)(F)F)cc2)c1=O [Compound I-1289, 1-(4-chlorobenzyl)-3-isopropyl-5-(4-trifluoromethylbenzyl)-1,3,5-triazinane-2,4,6-trione]
IC50 [3]: 510 nM

COC(=O)[C@@H](C)Cn1c(=O)[nH]/c(=N\c2ccc(C=C3CCCC3)cc2)n(Cc2ccc(C)cc2)c1=O [Compound I-1094]
IC50 [2]: 103 nM

CCOC(=O)CCn1c(=O)[nH]/c(=N\c2ccc(OC3CCC3)c(C)c2)n(Cc2ccc(C)cc2)c1=O [Compound I-1400]
IC50 [3]: 13 nM

CCn1c(=O)[nH]/c(=N\c2ccc(Oc3ccc(C(=O)O)nc3)cc2)n(Cc2ccc(Cl)cn2)c1=O [Compound I-2278]
IC50 [1]: 136 nM

CCc1nc2ccc(/N=c3\[nH]c(=O)n(CCC(=O)O)c(=O)n3Cc3ccc(C)cc3)cc2s1 [Compound I-1510]
IC50 [1]: 13 nM

Cc1cc(Oc2ccc(/N=c3\[nH]c(=O)n(CC(=O)O)c(=O)n3Cc3ccc(Cl)cc3)cc2)ccn1 [Compound I-1800]
IC50 [2]: 510 nM

COC(=O)[C@@H](C)Cn1c(=O)[nH]/c(=N\c2ccc(Oc3ccc(OC)nc3)cc2)n(Cc2ccc(C)cc2)c1=O [Compound I-1522]
IC50 [1]: 5 nM

CCn1c(=O)[nH]/c(=N\c2ccc(Oc3ccc(C(=O)O)cc3)nc2)n(Cc2ccc(Cl)cc2)c1=O [Compound I-2621]
IC50 [1]: 265 nM

Cc1cc(Oc2ccc(/N=c3\[nH]c(=O)n(CC(N)=O)c(=O)n3Cc3ccc(Cl)cc3)cc2)ccn1 [Compound I-1926]
IC50 [3]: 10 nM

COC(=O)NCCCn1c(=O)[nH]/c(=N\c2ccc(OC(C)C)c(F)c2)n(Cc2ccc(Cl)cc2)c1=O [Compound I-0608]
IC50 [3]: 6 nM

CCn1c(=O)[nH]/c(=N\c2ccc3nc(OCC(=O)OC)sc3c2)n(Cc2ccc(Cl)cc2)c1=O [Compound I-2324]
IC50 [1]: 115 nM

CNC(=O)CCn1c(=O)[nH]/c(=N\c2ccc(Oc3ccon3)cc2)n(Cc2ccc(Cl)cc2)c1=O [Compound I-2527]
IC50 [1]: 26 nM

Cc1ccc(Cn2c(=O)n(C[C@H](C)C(=O)O)c(=O)[nH]/c2=N\c2ccc(Oc3cccnc3C)cc2)cc1 [Compound I-1231]
IC50 [3]: 36 nM

CCCCOc1ccc(/N=c2\[nH]c(=O)n(C[C@H](C)C(=O)OC)c(=O)n2Cc2ccc(Cl)cc2)cc1 [Compound I-0814]
IC50 [3]: 17 nM

COC(=O)CCn1c(=O)[nH]/c(=N\c2cc(-c3ccncc3)c[nH]c2=O)n(Cc2ccc(C)cc2)c1=O [Compound I-1893]
IC50 [2]: 178 nM

Cn1c(=O)[nH]/c(=N\c2ccc(Oc3ccnc(C(=O)O)c3)c(F)c2)n(Cc2ccc(Cl)cc2)c1=O [Compound I-2461]
IC50 [1]: 7 nM

C[C@H](C(=O)O)[C@@H](C)n1c(=O)[nH]/c(=N\c2cccc(C(F)(F)F)c2)n(Cc2ccc(Cl)cc2)c1=O [Compound I-1345]
IC50 [3]: 69 nM

CC(C)Oc1ccc(/N=c2\[nH]c(=O)n(CC(C)(C)CC(=O)O)c(=O)n2Cc2ccc(Cl)cc2)cc1F [Compound I-0845]
IC50 [1]: 24 nM

CCc1nc2ccc(/N=c3\[nH]c(=O)n(CC(C)(C)C(=O)O)c(=O)n3Cc3ccc(C)cc3)cc2s1 [Compound I-1580]
IC50 [2]: 6 nM

COC(=O)CCn1c(=O)[nH]/c(=N\c2ccc(Oc3cccc(C#N)n3)cc2)n(Cc2ccc(C)cc2)c1=O [Compound I-2633]
IC50 [1]: 2 nM

COC(=O)[C@@H](C)Cn1c(=O)[nH]/c(=N\c2ccc(CC(C)C)cc2)n(Cc2ccc(C)cc2)c1=O [Compound I-0860]
IC50 [1]: 62 nM

COCc1c(Cl)cc(/N=c2\[nH]c(=O)n(C[C@H](C)C(=O)O)c(=O)n2Cc2ccc(C)cc2)cc1Cl [Compound I-1501]
IC50 [1]: 11 nM

O=c1[nH]/c(=N\c2ccc(Oc3ccc(O)nc3)cc2)n(Cc2ccc(Cl)cc2)c(=O)n1CCO [Compound I-1789]
IC50 [2]: 30 nM

CCn1c(=O)[nH]/c(=N\c2ccc(Oc3cncc(C(=O)O)c3)cc2)n(Cc2ccc(C)cc2)c1=O [Compound I-2078]
IC50 [3]: 8 nM

O=C(O)CCn1c(=O)[nH]/c(=N\c2ccc(Oc3ncccn3)cc2)n(Cc2ccc(Cl)cc2)c1=O [Compound I-2557]
IC50 [1]: 19 nM

CCn1c(=O)[nH]/c(=N\c2ccc(Oc3ccnc(C(=O)NC)c3)cc2)n(Cc2ccc(C)cc2)c1=O [Compound I-2013]
IC50 [3]: 3 nM

CCc1ccc(Cn2c(=O)n(C[C@H](C)C(=O)OC)c(=O)[nH]/c2=N\c2ccc(OC(C)C)cc2)cc1 [Compound I-1133]
IC50 [2]: 51 nM

Cc1ccc(Oc2ccc(/N=c3\[nH]c(=O)n(CC(=O)NCCO)c(=O)n3Cc3ccc(Cl)cc3)cc2)cn1 [Compound I-1980]
IC50 [3]: 7 nM

Cc1ccc(Cn2c(=O)n(CC3(C(=O)O)CC3)c(=O)[nH]/c2=N\c2ccc(OCC3CC3)c(Cl)c2)cc1 [Compound I-0976]
IC50 [2]: 69 nM

COC(=O)[C@@H](C)Cn1c(=O)[nH]/c(=N\c2ccc(OC(C)C)c(Cl)c2)n(Cc2ccc(F)cc2)c1=O [Compound I-0626]
IC50 [3]: 22 nM

CCOc1ccc(/N=c2\[nH]c(=O)n(C[C@@H](C)C(=O)OC)c(=O)n2Cc2ccc(Cl)cc2)cc1Cl [Compound I-0590]
IC50 [3]: 4 nM

COCc1cc(/N=c2\[nH]c(=O)n(CC(C)(C)C(=O)OC)c(=O)n2Cc2ccc(Cl)cc2)ccc1OC(C)C [Compound I-1422]
IC50 [3]: 529 nM

Cc1nsc(Oc2ccc(/N=c3\[nH]c(=O)n(CC(C)(CO)CO)c(=O)n3Cc3ccc(Cl)cc3)cc2)n1 [Compound I-2576]
IC50 [1]: 3 nM

C[C@@H](C(=O)O)[C@H](C)n1c(=O)[nH]/c(=N\c2ccc3c(O)cccc3c2)n(Cc2ccc(Cl)cc2)c1=O [Compound I-1826]
IC50 [2]: 751 nM

CC(C)Oc1ccc(/N=c2\[nH]c(=O)n(C[C@H](C)C(=O)O)c(=O)n2Cc2ccc(I)cc2)cc1 [Compound I-1092]
IC50 [2]: 69 nM

COC(=O)C(C)(C)Cn1c(=O)[nH]/c(=N\c2ccc(OCC3CC3)cc2)n(Cc2ccc(Cl)cc2)c1=O [Compound I-1236]
IC50 [3]: 13 nM

CCCOc1ccc(/N=c2\[nH]c(=O)n(C[C@H](C)C(=O)O)c(=O)n2Cc2ccc(Cl)cc2)cc1C [Compound I-0711]
IC50 [3]: 40 nM

COC(=O)Cn1c(=O)[nH]/c(=N\c2ccc(Oc3ccc(C)nc3)cc2)n(Cc2ccc(Cl)cc2)c1=O [Compound I-1904]
IC50 [2]: 8 nM

COC(=O)[C@@H](C)Cn1c(=O)[nH]/c(=N\c2ccc(CC(C)C)c(OC)c2)n(Cc2ccc(C)cc2)c1=O [Compound I-1249]
IC50 [3]: 21 nM

CCc1nc2ccc(/N=c3\[nH]c(=O)n(C[C@H](C)C(=O)OC)c(=O)n3Cc3ccc(Cl)cc3)cc2o1 [Compound I-1326]
IC50 [3]: 217 nM

Cc1ccc(Cn2c(=O)n([C@@H](C)[C@@H](C)C(=O)O)c(=O)[nH]/c2=N\c2ccc(OC3CCC3)cc2)cc1 [Compound I-1392]
IC50 [3]: 18 nM

COC(=O)[C@@H](C)Cn1c(=O)[nH]/c(=N\c2cnc(OC3CCC3)c(Cl)c2)n(Cc2ccc(C)cc2)c1=O [Compound I-1398]
IC50 [3]: 25 nM

CCCc1ccc(/N=c2\[nH]c(=O)n(C[C@H](C)C(=O)OC)c(=O)n2Cc2ccc(C)cc2)cc1Cl [Compound I-1277]
IC50 [3]: 15 nM
